Experimental findings from the Biogen ADME set (Fang et al. 2023) are described below.

For this data set the following is noted: for aqueous solubility: pH 6.8.

SMILES strings stand for the structures. Converted amounts (≈) assume the structure as drawn.

Turning to `O=C(NCc1cccc(F)c1)c1[nH]nnc1-c1ccccc1`, the MDR1-MDCK efflux ratio came out at 1.37; the intrinsic clearance, human liver microsomes was ≤ 4.74 mL/min/kg; the intrinsic clearance, rat liver microsomes came to 17.4 mL/min/kg; the aqueous solubility was found to be 20.9 µg/mL (≈ 70.7 µM).

Consider `CC(C)(C)C[C@@H]1COCc2nc(OCc3ccccn3)cc(=O)n21`, for which the aqueous solubility amounted to 62.1 µg/mL (≈ 189 µM).

As to `CC(C)[C@H](NC(=O)c1c(F)cccc1F)C(=O)N1CCOCC1`, the MDR1-MDCK efflux ratio stood at 8.08; the intrinsic clearance, human liver microsomes was ≤ 4.74 mL/min/kg; the intrinsic clearance, rat liver microsomes is ≤ 10.7 mL/min/kg; the aqueous solubility turned out to be 50.7 µg/mL (≈ 155 µM).

With `Nc1ccc(C(=O)N2CCOCC2)c(Cl)c1`, the MDR1-MDCK efflux ratio turned out to be 0.476; the intrinsic clearance, human liver microsomes was ≤ 4.74 mL/min/kg; the intrinsic clearance, rat liver microsomes was ≤ 10.7 mL/min/kg; the aqueous solubility was 38.1 µg/mL (≈ 159 µM).

With `Cc1cc(C(=O)N(C)C2CCSCC2)c(=O)n(C)c1C`, the MDR1-MDCK efflux ratio worked out at 39; the intrinsic clearance, human liver microsomes amounted to 29.1 mL/min/kg; the intrinsic clearance, rat liver microsomes is 56.4 mL/min/kg.

For `O=C(O)c1csc(Cc2ccc(Cl)cc2)n1`, the MDR1-MDCK efflux ratio came to 0.4; the intrinsic clearance, human liver microsomes was ≤ 4.74 mL/min/kg; the intrinsic clearance, rat liver microsomes was ≤ 10.7 mL/min/kg.

With `CCc1ncnc(N(C)Cc2ccc(N)nc2)c1F`, the MDR1-MDCK efflux ratio is 0.635; the intrinsic clearance, human liver microsomes was ≤ 4.74 mL/min/kg; the intrinsic clearance, rat liver microsomes was 44.2 mL/min/kg; the aqueous solubility stood at 34.9 µg/mL (≈ 134 µM).

With `CC1(CNC(=O)N2CCN(Cc3ccon3)CC2)CCCC1`, the MDR1-MDCK efflux ratio came to 2.07; the intrinsic clearance, human liver microsomes turned out to be 7.42 mL/min/kg; the intrinsic clearance, rat liver microsomes was 308 mL/min/kg.

For `CN(C(=O)c1cc(N2CCNC2=O)ccc1F)C1CCC(N)CC1` (stereo unspecified), the MDR1-MDCK efflux ratio worked out at 1.02; the fraction unbound, human plasma came to 0.674; the intrinsic clearance, human liver microsomes was ≤ 4.74 mL/min/kg.

Regarding `Cc1nc([C@H]2CC[C@H](CNC(=O)CN3CCC(c4ccccc4)CC3)CC2)ccc1C(N)=O`, the MDR1-MDCK efflux ratio came out at 14.9; the intrinsic clearance, human liver microsomes worked out at 37.3 mL/min/kg; the intrinsic clearance, rat liver microsomes came to 390 mL/min/kg; the aqueous solubility is 70.2 µg/mL (≈ 156 µM).

On to `O=C(Cc1ccc2c(c1)OCCO2)NC1CCCCCC1`, for which the MDR1-MDCK efflux ratio is 0.619; the intrinsic clearance, human liver microsomes was found to be 194 mL/min/kg; the intrinsic clearance, rat liver microsomes is 927 mL/min/kg; the aqueous solubility is 42.1 µg/mL (≈ 146 µM).

Consider `CN(Cc1cccc(C#N)c1)Cc1ccccc1C#N`, for which the MDR1-MDCK efflux ratio is 0.591; the intrinsic clearance, human liver microsomes is 283 mL/min/kg; the intrinsic clearance, rat liver microsomes worked out at 4220 mL/min/kg; the aqueous solubility turned out to be 29.4 µg/mL (≈ 112 µM).

On to `O=C(CNc1ccc(C(=O)N2CCCC2)cc1)N1CCCCC1`, for which the MDR1-MDCK efflux ratio was 5.78; the intrinsic clearance, human liver microsomes was ≤ 4.74 mL/min/kg; the intrinsic clearance, rat liver microsomes came out at 92.7 mL/min/kg; the aqueous solubility turned out to be 54.2 µg/mL (≈ 172 µM).

With `O=C(CN1CCc2ccccc21)N1CCC(c2nc3ccccc3[nH]2)CC1`, the MDR1-MDCK efflux ratio stood at 56.1; the intrinsic clearance, human liver microsomes was 112 mL/min/kg; the intrinsic clearance, rat liver microsomes was found to be 1180 mL/min/kg; the aqueous solubility was determined as 52.5 µg/mL (≈ 146 µM).

Consider `Nc1ncnc2ccc(-c3ccnc(F)c3)nc12`, for which the MDR1-MDCK efflux ratio came to 0.726; the intrinsic clearance, human liver microsomes was ≤ 4.74 mL/min/kg; the intrinsic clearance, rat liver microsomes was ≤ 10.7 mL/min/kg.

The molecule `COc1ccc2c(c1)C(=O)N(c1ccccc1OC)C(=O)C2` gave an aqueous solubility of 40.3 µg/mL (≈ 135 µM).

`O=C(NCCN1CCc2ccccc2C1=O)c1ccon1`: the MDR1-MDCK efflux ratio amounted to 1.18; the intrinsic clearance, human liver microsomes was ≤ 4.74 mL/min/kg; the intrinsic clearance, rat liver microsomes came to 56.3 mL/min/kg.

On to `COc1ccccc1-c1nc(C(=O)O)cs1`, for which the MDR1-MDCK efflux ratio was determined as 0.649; the intrinsic clearance, human liver microsomes is ≤ 4.74 mL/min/kg; the intrinsic clearance, rat liver microsomes is ≤ 10.7 mL/min/kg; the aqueous solubility was 54.6 µg/mL (≈ 232 µM).

Take `c1ccc(-n2cnc3cc(NCc4ccccn4)ccc32)cc1`: the intrinsic clearance, human liver microsomes is 22.6 mL/min/kg; the intrinsic clearance, rat liver microsomes was determined as 3200 mL/min/kg; the aqueous solubility turned out to be 18.4 µg/mL (≈ 61.3 µM).

Turning to `Cc1nc(-c2ccc(Cl)c(Cl)c2)n(CC(C)(C)O)n1`, the MDR1-MDCK efflux ratio is 0.634; the intrinsic clearance, human liver microsomes is ≤ 4.74 mL/min/kg; the intrinsic clearance, rat liver microsomes is ≤ 10.7 mL/min/kg; the aqueous solubility amounted to 41.9 µg/mL (≈ 140 µM).

As to `N#Cc1cccc(CN2CCN(CCO)CC2)c1`, the intrinsic clearance, human liver microsomes is 6.28 mL/min/kg; the intrinsic clearance, rat liver microsomes stood at 126 mL/min/kg; the aqueous solubility was determined as 29.3 µg/mL (≈ 119 µM).

`CN(C)c1ccc2c(c1)Sc1cc(N(C)C)ccc1N2`: the MDR1-MDCK efflux ratio was found to be 6.59; the intrinsic clearance, human liver microsomes was found to be 31.8 mL/min/kg; the intrinsic clearance, rat liver microsomes was found to be 153 mL/min/kg.

In the case of `O=C1C(N2CCC(n3c(=O)[nH]c4ccccc43)CC2)CCN1c1ccccc1` (stereo unspecified), the intrinsic clearance, human liver microsomes stood at 4.86 mL/min/kg; the intrinsic clearance, rat liver microsomes turned out to be 139 mL/min/kg; the aqueous solubility was 62 µg/mL (≈ 165 µM).

For `O=C1CC[C@H](O)[C@@H](c2cccc(Cl)c2)N1Cc1ccccc1`, the MDR1-MDCK efflux ratio is 3.79; the intrinsic clearance, human liver microsomes was 10.9 mL/min/kg; the intrinsic clearance, rat liver microsomes is 450 mL/min/kg; the aqueous solubility stood at 118 µg/mL (≈ 375 µM).

Consider `CCS(=O)(=O)N1CCC(C(=O)N(C)C2CCCCCCC2)CC1`, for which the MDR1-MDCK efflux ratio is 1.57; the intrinsic clearance, human liver microsomes worked out at 133 mL/min/kg; the intrinsic clearance, rat liver microsomes came out at 857 mL/min/kg; the aqueous solubility was found to be 51.4 µg/mL (≈ 149 µM).

As to `CSCc1csc(NC(C)=O)n1`, the MDR1-MDCK efflux ratio was 0.631; the intrinsic clearance, human liver microsomes was 19.2 mL/min/kg; the intrinsic clearance, rat liver microsomes was found to be 248 mL/min/kg; the aqueous solubility came to 27.9 µg/mL (≈ 138 µM).

Turning to `O=C(NC[C@H]1COCc2nc3ccccc3n21)c1ccncc1`, the MDR1-MDCK efflux ratio was 23.9; the intrinsic clearance, human liver microsomes amounted to 18.9 mL/min/kg; the intrinsic clearance, rat liver microsomes stood at 131 mL/min/kg; the aqueous solubility is 52.1 µg/mL (≈ 169 µM).

As for `c1ccc(COc2ccc(CNCC3CCNCC3)cc2)cc1`, the MDR1-MDCK efflux ratio turned out to be 4.9; the intrinsic clearance, human liver microsomes is ≤ 4.74 mL/min/kg; the intrinsic clearance, rat liver microsomes amounted to 21.1 mL/min/kg; the aqueous solubility was 25.2 µg/mL (≈ 81.2 µM).

Turning to `O=c1c2cnccc2ncn1Cc1ccc2c(c1)CCCO2`, the MDR1-MDCK efflux ratio worked out at 0.724; the intrinsic clearance, human liver microsomes was 45.9 mL/min/kg; the intrinsic clearance, rat liver microsomes amounted to 281 mL/min/kg.

For `CCn1nccc1-c1cc(C)nc(N2CCCC2)n1`, the MDR1-MDCK efflux ratio worked out at 0.641; the intrinsic clearance, human liver microsomes was determined as 115 mL/min/kg; the intrinsic clearance, rat liver microsomes was determined as 398 mL/min/kg.

`O=C(NC1CCCCCC1)c1ccc(CSc2nc3ccccc3[nH]2)cc1`: the MDR1-MDCK efflux ratio turned out to be 2.99; the intrinsic clearance, human liver microsomes worked out at 161 mL/min/kg; the intrinsic clearance, rat liver microsomes stood at 1900 mL/min/kg; the aqueous solubility came to 2.71 µg/mL (≈ 7.14 µM).

With `Cc1nc2ccccn2c1CC(=O)NCCCSc1ccccc1`, the MDR1-MDCK efflux ratio amounted to 26.2; the intrinsic clearance, human liver microsomes came out at 77.8 mL/min/kg; the intrinsic clearance, rat liver microsomes came to 1260 mL/min/kg; the aqueous solubility came to 42.3 µg/mL (≈ 125 µM).

Regarding `Cc1cc(Nc2ccc3c(c2)oc(=O)n3C)nc(C2CC2)n1`, the MDR1-MDCK efflux ratio was determined as 0.717; the intrinsic clearance, human liver microsomes came out at 23.9 mL/min/kg; the intrinsic clearance, rat liver microsomes amounted to 159 mL/min/kg; the aqueous solubility was 5.34 µg/mL (≈ 18 µM).

As for `COc1cc2nc(CN3CCC(CO)CC3)[nH]c(=O)c2cc1OC`, the MDR1-MDCK efflux ratio was determined as 29; the intrinsic clearance, human liver microsomes is ≤ 4.74 mL/min/kg; the intrinsic clearance, rat liver microsomes is ≤ 10.7 mL/min/kg.

For the molecule `Cc1noc(NCc2ccc(F)cc2C)n1`, the MDR1-MDCK efflux ratio was 0.589; the intrinsic clearance, human liver microsomes is ≤ 4.74 mL/min/kg; the intrinsic clearance, rat liver microsomes came out at 68.3 mL/min/kg.

Turning to `NCCOc1cccc(C(F)(F)F)n1`, the aqueous solubility was 21.8 µg/mL (≈ 105 µM).

Consider `COc1cc2cc(N)c(C3CCN(C(=O)C(C)(C)C)CC3)nc2cc1OC`, for which the MDR1-MDCK efflux ratio amounted to 5.8; the intrinsic clearance, human liver microsomes stood at 7.04 mL/min/kg; the intrinsic clearance, rat liver microsomes came out at 43.5 mL/min/kg; the aqueous solubility came to 53 µg/mL (≈ 143 µM).

On to `Cc1ccc2c(CC(=O)N(C)CC(N)=O)coc2c1C`, for which the aqueous solubility was 34.9 µg/mL (≈ 127 µM).

`Cc1ccc(S(=O)(=O)N2CCCc3ccc(NS(=O)(=O)c4cc(F)ccc4F)cc32)cc1` had an intrinsic clearance, human liver microsomes of 244 mL/min/kg and an intrinsic clearance, rat liver microsomes of 2260 mL/min/kg.

For the molecule `Cc1ncccc1NC(=O)OC(C)(C)C`, the MDR1-MDCK efflux ratio was 0.755; the intrinsic clearance, human liver microsomes was ≤ 4.74 mL/min/kg; the intrinsic clearance, rat liver microsomes was found to be 21.1 mL/min/kg.

As to `CCCn1cnnc1Cn1ccnc1-c1ccc2occc2c1`, the MDR1-MDCK efflux ratio was 93.8; the intrinsic clearance, human liver microsomes is ≤ 4.74 mL/min/kg; the intrinsic clearance, rat liver microsomes came to 16.6 mL/min/kg; the aqueous solubility turned out to be 28.6 µg/mL (≈ 93.1 µM).

Take `COc1nc(C#N)c(N2CCOCC2)o1`: the aqueous solubility stood at 44.4 µg/mL (≈ 212 µM).

On to `CCNC(=O)N1CCC2(CCc3ccccc3O2)CC1`, for which the MDR1-MDCK efflux ratio was found to be 0.737; the intrinsic clearance, human liver microsomes came to 6.22 mL/min/kg; the intrinsic clearance, rat liver microsomes stood at 884 mL/min/kg; the aqueous solubility is 66.7 µg/mL (≈ 243 µM).

Consider `CCCc1nc(N2CCc3ccccc3C2)ncc1C(=O)O`, for which the MDR1-MDCK efflux ratio came out at 0.725; the intrinsic clearance, human liver microsomes is ≤ 4.74 mL/min/kg; the intrinsic clearance, rat liver microsomes amounted to 39.3 mL/min/kg; the aqueous solubility is 51.4 µg/mL (≈ 173 µM).

Take `CCn1nccc1-c1n[nH]c(=O)n1Cc1ccccc1`: the aqueous solubility is 27 µg/mL (≈ 100 µM).

For `Cn1ncc2c(Oc3cccc(C(C)(C)C)c3)ncnc21`, the MDR1-MDCK efflux ratio is 0.48; the intrinsic clearance, human liver microsomes is 36.7 mL/min/kg; the intrinsic clearance, rat liver microsomes was found to be 465 mL/min/kg; the aqueous solubility stood at 3.9 µg/mL (≈ 13.8 µM).

In turn, `c1cnn(-c2ccc(-c3ccc(NC4CC4)nn3)cc2)c1` showed an aqueous solubility of 0.78 µg/mL (≈ 2.81 µM).

Take `COc1ccc(C(=O)Nc2ccc3oc(C)nc3c2)c(OC)c1`: the MDR1-MDCK efflux ratio amounted to 0.547; the intrinsic clearance, human liver microsomes was 25.3 mL/min/kg; the intrinsic clearance, rat liver microsomes is 191 mL/min/kg; the aqueous solubility turned out to be 15.4 µg/mL (≈ 49.4 µM).

`CCN(Cc1cccs1)C(=O)CN1CCC(n2c(=O)[nH]c3ccccc32)CC1` came in with an intrinsic clearance, human liver microsomes of 151 mL/min/kg and an intrinsic clearance, rat liver microsomes of 2800 mL/min/kg.

What is called aqueous solubility is the dissolved amount per volume that the medium holds.
